For this assay, the system named is Pyocyanin. Kind of assay: Pyocyanin Inhibition Assay. In kind it is cell-based, P. aeruginosa, strain PA14. The settings on record: Pseudomonas aeruginosa, PA14, 24 h, read-out: Pyocyanin Inhibition No. IC50 (μM). On the procedure:
Test compounds are dissolved in DMSO at 10 mM and stored at −20° C. until needed. Seven test concentrations from 0.0032 micromolar to 31.6 micromolar are used for each compound.
P. aeruginosa, strain PA14, is inoculated into 5 mL of LB broth in a 15-mL sterile glass culture tube and incubated overnight at 37° C. under shaking (˜240 rpm). The overnight culture is then diluted in LB Broth to give an OD600=0.04 (T0 culture). Colony Forming Units (CFU)/mL of the overnight culture and T0 culture are determined by a series of 1:10 serial dilutions in sterile saline. 4×20 μL of each dilution is seeded on LB agar plates and incubated at 35±2° C. for 20 hours. CFU/mL is determined from the dilution that gives 2 to 50 colonies/20 μL.
For concentration response curve (CRC) experiments, internal standard, 2-((5-nitro-1H-indol-2-yl)thio)-N-(4-phenoxyphenyl)acetamide, a compound previously identified as an MvfR inhibitor (see Example 1 of US 2014-0066454 (WO 2012/116010)), and test compounds are serially diluted in DMSO to 200 times each final concentration (0.5% DMSO fmal), and 1 μL/well is dispensed in duplicate into 2 mL wells of a 96-well deep well plate. 200 μL/well of T0 culture are added to each internal standard/test compound well. Wells containing only T0 culture (200 200 μL/well) are used to determine pyocyanin control level and wells containing only LB broth (blank wells) are also included in the plate.
The plate is sealed and incubated at 37° C. under shaking (˜700 rpm) using a microtiter shaker for 24 hours. At the end of the incubation period, the plate is centrifuged at 4,000 g for 40 minutes at room temperature, 100 μL/well of the supernatant is transferred to a 96-microtiter PS flat-bottom plate, and absorbance at 690 nm is determined using SPECTROstar® Nano microplate reader. Pyocyanin concentration (M) is determined using the equation C=A690/(ε×d), where ε is the Pyocyanin extinction coefficient, at A690 nm ε is 4,310 M^−1 cm^−1 and d is the experimentally derived pathlength. The level of pyocyanin in the presence of test compound is expressed as percentage of inhibition with respect to the control. Curve fitting and IC50 determination were carried out using a four-parameter logistic model using GraphPad Prism v.5.

Consider 39 molecules from patent US9643933B2, “Compounds useful as antibiotic tolerance inhibitors” (priority 2013, dated 2017).

On to `NS(=O)(=O)c1ccc2[nH]c(SCC(=O)Nc3ccc(Cl)cc3)nc2c1` [Compound 99], for which the IC50 (as a rule, the midpoint of a concentration-inhibition curve) was above 10 µM. Under `O=C(CSc1nc2cc(O)ccc2[nH]1)Nc1ccc(Cl)cc1` [Compound 131] stands above 10 µM; under `CC(C)(O)c1cc(Cl)cc2nc(SCC(=O)Nc3ccc(Oc4cccnc4)cc3)[nH]c12` [Compound 171, 2-((5-chloro-7-(2-hydroxypropan-2-yl)-1H-benzo[d]imidazol-2-yl)thio)-N-(4-(pyridin-3-yloxy)phenyl)acetamide], below 0.1 µM. Under `O=C(CSc1nc2cccnc2[nH]1)Nc1ccc(Cl)cc1` [Compound 101] stands above 10 µM. Consider `COc1cc(Cl)cc2nc(SCC(=O)Nc3ccc(Oc4cccnc4)cc3)[nH]c12` [Compound 164, 2-((5-chloro-7-methoxy-1H-benzo[d]imidazol-2-yl)thio)-N-(4-(pyridin-3-yloxy)phenyl)acetamide], for which the IC50 is below 0.1 µM. The same measure for `Cc1cccc(NC(=O)CSc2nc3cccnc3[nH]2)c1` [Compound 121]: above 10 µM; for `O=C(C[C@H](O)c1nc2ccc(Cl)cc2[nH]1)Nc1ccc(Oc2cccnc2)cc1` [Compound 172, (S)-3-(6-chloro-1H-benzo[d]imidazol-2-yl)-3-hydroxy-N-(4-(pyridin-3-yloxy)phenyl)propanamide]: 1 to 10 µM; for `N#Cc1ccc(NC(=O)CSc2nc3cc(S(N)(=O)=O)ccc3[nH]2)cc1` [Compound 108]: above 10 µM. Consider `CC(=O)c1ccc(NC(=O)CSc2nc3ccc(C)cc3[nH]2)cc1` [Compound 124], for which the IC50 was above 10 µM. With `N#Cc1ccc2[nH]c(SCC(=O)Nc3ccc(Oc4cccnc4)cc3Cl)nc2c1` [Compound 170, N-(2-chloro-4-(pyridin-3-yloxy)phenyl)-2-((5-cyano-1H-benzo[d]imidazol-2-yl)thio)acetamide], the IC50 is below 0.1 µM. Consider `CS(=O)(=O)c1ccc2[nH]c(SCC(=O)Nc3ccc(C#N)cc3)nc2c1` [Compound 107], for which the half-inhibitory concentration (IC50) was above 10 µM. Regarding `CN(C)C(=O)c1ccc2[nH]c(SCC(=O)Nc3ccc(Cl)cc3)nc2c1` [Compound 118], the IC50 was above 10 µM. Turning to `COc1cc(Oc2cccnc2)ccc1NC(=O)CSc1nc2cc(C#N)ccc2[nH]1` [Compound 169, 2-((5-Cyano-1H-benzo[d]imidazol-2-yl)thio)-N-(2-methoxy-4-(pyridin-3-yloxy)phenyl)acetamide], the IC50 was 0.1 to 1 µM.

Consider `O=C(CSc1nc2ccc(-c3ncco3)cc2[nH]1)Nc1ccc(Cl)cc1` [Compound 127], for which the IC50 is above 10 µM. In the case of `N#Cc1ccc(NC(=O)CSc2nc3cnccc3[nH]2)cc1` [Compound 102], the IC50 is above 10 µM. On to `Cc1ccc(NC(=O)C(C)Sc2nc3ccc(Cl)cc3[nH]2)cc1` (stereo not drawn) [Compound 120], for which the IC50 is above 10 µM. Under `CNC(=O)c1ccc2[nH]c(SCC(=O)Nc3ccc(C#N)cc3)nc2c1` [Compound 129] stands above 10 µM. In the case of `O=C(CSc1nc2cc(Cl)ccc2[nH]1)Nc1ccc(Oc2cccnc2)cc1Cl` [Compound 165, 2-((5-Chloro-1H-benzo[d]imidazol-2-yl)thio)-N-(2-chloro-4-(pyridin-3-yloxy)phenyl)acetamide], the IC50 was below 0.1 µM. Take `Cc1cc(Oc2cccnc2)ccc1NC(=O)CSc1nc2cc(C#N)ccc2[nH]1` [Compound 168, 2-((5-Cyano-1H-benzo[d]imidazol-2-yl)thio)-N-(2-methyl-4-(pyridin-3-yloxy)phenyl)acetamide]: the IC50 was 0.1 to 1 µM.

With `Cc1ccc(NC(=O)CSc2nc3cccnc3[nH]2)cc1` [Compound 133], the IC50 is above 10 µM.

On to `O=C(CSc1nc2cccnc2[nH]1)Nc1ccccc1` [Compound 122], for which the concentration for half-maximal inhibition (IC50) is above 10 µM. The same measure for `O=C(CSc1nc2ccncc2[nH]1)Nc1ccccc1F` [Compound 132]: above 10 µM. The same measure for `N#Cc1ccc(NC(=O)CSc2nc3cc(O)ccc3[nH]2)cc1` [Compound 130]: above 10 µM; for `CC(=O)Nc1cccc(NC(=O)CSc2nc3cc(C)ccc3[nH]2)c1` [Compound 123]: above 10 µM.

Consider `CNC(=O)c1ccc2[nH]c(SCC(=O)Nc3ccc(Cl)cc3)nc2c1` [Compound 115], for which the concentration for half-maximal inhibition (IC50) was above 10 µM. Consider `COc1cc(Cl)cc2nc(SCC(=O)Nc3ccc(Cl)cc3)[nH]c12` [Compound 166, 2-((5-Chloro-7-methoxy-1H-benzo[d]imidazol-2-yl)thio)-N-(4-chlorophenyl)acetamide], for which the IC50 is 0.1 to 1 µM. Regarding `O=C(CSc1nc2cc(C(=O)O)ccc2[nH]1)Nc1ccc(Cl)cc1` [Compound 97], the IC50 was above 10 µM. Under `COc1cc(Oc2cccnc2)ccc1NC(=O)CSc1nc2cc(Cl)ccc2[nH]1` [Compound 161, 2-((5-chloro-1H-benzo[d]imidazol-2-yl)thio)-N-(2-methoxy-4-(pyridin-3-yloxy)phenyl)acetamide] stands below 0.1 µM. As for `O=C(CSc1nc2cc(Cl)ccc2[nH]1)Nc1ccc(Oc2cccnc2)cc1O` [Compound 162, 2-((5-Chloro-1H-benzo[d]imidazol-2-yl)thio)-N-(2-hydroxy-4-(pyridin-3-yloxy)phenyl)acetamide], the half-inhibitory concentration (IC50) was below 0.1 µM. The same measure for `O=C(CSc1nc2ccncc2[nH]1)Nc1ccc(Cl)cc1` [Compound 100]: above 10 µM; for `COC(=O)c1ccc2[nH]c(SCC(=O)Nc3ccc(Cl)cc3)nc2c1` [Compound 109]: above 10 µM. Under `N#Cc1ccc2[nH]c(SCC(=O)Nc3ccc(Cl)cc3Cl)nc2c1` [Compound 167, 2-((5-Cyano-1H-benzo[d]imidazol-2-yl)thio)-N-(2,4-dichlorophenyl)acetamide] stands 0.1 to 1 µM; under `O=C(CSc1nc2ccc(-c3ncccn3)cc2[nH]1)Nc1ccc(Cl)cc1` [Compound 114], above 10 µM.

Take `Cc1cc(Cl)ccc1NC(=O)CSc1nc2cc(C#N)ccc2[nH]1` [Compound 160, N-(4-chloro-2-methylphenyl)-2-((5-cyano-1H-benzo[d]imidazol-2-yl)thio)acetamide]: the IC50 was in the range of 1 to 10 µM.

Consider `N#Cc1ccc(NC(=O)CSc2nc3ccc(-c4ncco4)cc3[nH]2)cc1` [Compound 128], for which the IC50 was above 10 µM. For `Cc1cc(Oc2cccnc2)ccc1NC(=O)CSc1nc2cc(Cl)ccc2[nH]1` [Compound 163, 2-((5-Chloro-1H-benzo[d]imidazol-2-yl)thio)-N-(2-methyl-4-(pyridin-3-yloxy)phenyl)acetamide], the IC50 fell in the range of 0.1 to 1 µM. As for `CS(=O)(=O)c1ccc2[nH]c(SCC(=O)Nc3ccc(Cl)cc3)nc2c1` [Compound 98], the 50% inhibitory concentration (IC50) was above 10 µM. Turning to `N#Cc1ccc(NC(=O)CSc2nc3ncccc3[nH]2)cc1` [Compound 103], the IC50 is above 10 µM. `CN(C)C(=O)c1ccc2[nH]c(SCC(=O)Nc3ccc(C#N)cc3)nc2c1` [Compound 119]: the IC50 was above 10 µM.
